Experimental data: the NIST ThermoML archive (doi:10.1016/j.tca.2013.08.016)
± gives the expanded uncertainty stated by the source.

Assays:
[1] = refractive index (Na D-line) (dimensionless); φn = volume fraction of the nth substance listed; conditions: 101 kPa, Liquid, Standard Abbe refractometry
[2] = refractive index (Na D-line) (dimensionless); conditions: 101.33 kPa, Liquid, Standard Abbe refractometry

CCCC[n+]1cccc(C)c1.F[B-](F)(F)F [1-butyl-3-methylpyridinium tetrafluoroborate] + CCO
[1]
Conditions	refractive index
293.15 K, φ1 = 0.0895	1.3713 ± 0.00042
293.15 K, φ1 = 0.1467	1.3773 ± 0.00042
293.15 K, φ1 = 0.2062	1.38325 ± 0.00042
293.15 K, φ1 = 0.2725	1.38979 ± 0.00042
293.15 K, φ1 = 0.4637	1.4075 ± 0.00043
293.15 K, φ1 = 0.5588	1.41595 ± 0.00043
293.15 K, φ1 = 0.6583	1.4245 ± 0.00043
293.15 K, φ1 = 0.6935	1.42757 ± 0.00044
293.15 K, φ1 = 0.8285	1.43878 ± 0.00044
293.15 K, φ1 = 0.883	1.44311 ± 0.00044
293.15 K, φ1 = 0.928	1.4467 ± 0.00044
293.15 K, φ1 = 0.9641	1.44963 ± 0.00045
293.15 K, φ1 = 1	1.45248 ± 0.00045
303.15 K, φ1 = 0.0891	1.3672 ± 0.00042
303.15 K, φ1 = 0.1461	1.37333 ± 0.00042
303.15 K, φ1 = 0.2054	1.3794 ± 0.00042
303.15 K, φ1 = 0.2716	1.38602 ± 0.00042
303.15 K, φ1 = 0.4626	1.404 ± 0.00043
303.15 K, φ1 = 0.5577	1.41257 ± 0.00043
303.15 K, φ1 = 0.6572	1.42134 ± 0.00043
303.15 K, φ1 = 0.6925	1.42444 ± 0.00044
303.15 K, φ1 = 0.8278	1.43584 ± 0.00044
303.15 K, φ1 = 0.8825	1.44031 ± 0.00044
303.15 K, φ1 = 0.9277	1.4439 ± 0.00044
303.15 K, φ1 = 0.964	1.4469 ± 0.00045
303.15 K, φ1 = 1	1.44976 ± 0.00045
313.15 K, φ1 = 0.0887	1.36314 ± 0.00042
313.15 K, φ1 = 0.1477	1.36964 ± 0.00042
313.15 K, φ1 = 0.2047	1.37558 ± 0.00042
313.15 K, φ1 = 0.2706	1.3823 ± 0.00042
313.15 K, φ1 = 0.4614	1.40055 ± 0.00043
313.15 K, φ1 = 0.5565	1.40924 ± 0.00043
313.15 K, φ1 = 0.6561	1.4182 ± 0.00043
313.15 K, φ1 = 0.6914	1.42134 ± 0.00044
313.15 K, φ1 = 0.8271	1.43292 ± 0.00044
313.15 K, φ1 = 0.882	1.43752 ± 0.00044
313.15 K, φ1 = 0.9273	1.44114 ± 0.00044
313.15 K, φ1 = 0.9638	1.44418 ± 0.00045
313.15 K, φ1 = 1	1.44706 ± 0.00045
323.15 K, φ1 = 0.0883	1.35913 ± 0.00042
323.15 K, φ1 = 0.147	1.36572 ± 0.00042
323.15 K, φ1 = 0.2037	1.37173 ± 0.00042
323.15 K, φ1 = 0.2695	1.37856 ± 0.00042
323.15 K, φ1 = 0.4599	1.39714 ± 0.00043
323.15 K, φ1 = 0.555	1.40599 ± 0.00043
323.15 K, φ1 = 0.6548	1.41504 ± 0.00043
323.15 K, φ1 = 0.6902	1.41823 ± 0.00044
323.15 K, φ1 = 0.8263	1.42988 ± 0.00044
323.15 K, φ1 = 0.8814	1.43448 ± 0.00044
323.15 K, φ1 = 0.9269	1.43827 ± 0.00044
323.15 K, φ1 = 0.9636	1.44135 ± 0.00045
323.15 K, φ1 = 1	1.44425 ± 0.00045

CO [methanol]
[2]
Conditions	refractive index
293.15 K	1.32843 ± 0.0004
303.15 K	1.32433 ± 0.0004
313.15 K	1.32015 ± 0.0004
323.15 K	1.3167 ± 0.0004

CCCC[n+]1cccc(C)c1.F[B-](F)(F)F [1-butyl-3-methylpyridinium tetrafluoroborate] + CO
[1]
Conditions	refractive index
293.15 K, φ1 = 0.0958	1.34245 ± 0.0004
293.15 K, φ1 = 0.2025	1.35728 ± 0.00041
293.15 K, φ1 = 0.2756	1.36702 ± 0.00041
293.15 K, φ1 = 0.3528	1.37693 ± 0.00041
293.15 K, φ1 = 0.4508	1.38917 ± 0.00042
293.15 K, φ1 = 0.5501	1.40126 ± 0.00042
293.15 K, φ1 = 0.6751	1.416 ± 0.00043
293.15 K, φ1 = 0.7686	1.42667 ± 0.00043
293.15 K, φ1 = 0.828	1.43333 ± 0.00044
293.15 K, φ1 = 0.8763	1.43873 ± 0.00044
293.15 K, φ1 = 0.9159	1.44307 ± 0.00044
293.15 K, φ1 = 0.9334	1.445 ± 0.00044
293.15 K, φ1 = 0.9732	1.44949 ± 0.00045
293.15 K, φ1 = 1	1.45248 ± 0.00045
303.15 K, φ1 = 0.0958	1.33885 ± 0.0004
303.15 K, φ1 = 0.2025	1.35407 ± 0.00041
303.15 K, φ1 = 0.2756	1.364 ± 0.00041
303.15 K, φ1 = 0.3528	1.37406 ± 0.00041
303.15 K, φ1 = 0.4508	1.38641 ± 0.00042
303.15 K, φ1 = 0.5501	1.39855 ± 0.00042
303.15 K, φ1 = 0.6751	1.41337 ± 0.00043
303.15 K, φ1 = 0.7686	1.42402 ± 0.00043
303.15 K, φ1 = 0.828	1.43069 ± 0.00044
303.15 K, φ1 = 0.8763	1.43606 ± 0.00044
303.15 K, φ1 = 0.9159	1.44042 ± 0.00044
303.15 K, φ1 = 0.9334	1.44233 ± 0.00044
303.15 K, φ1 = 0.9732	1.4468 ± 0.00045
303.15 K, φ1 = 1	1.44976 ± 0.00045
313.15 K, φ1 = 0.0948	1.33503 ± 0.0004
313.15 K, φ1 = 0.2006	1.3505 ± 0.00041
313.15 K, φ1 = 0.2756	1.36083 ± 0.00041
313.15 K, φ1 = 0.3501	1.37069 ± 0.00041
313.15 K, φ1 = 0.4478	1.38319 ± 0.00042
313.15 K, φ1 = 0.5471	1.39542 ± 0.00042
313.15 K, φ1 = 0.6725	1.41032 ± 0.00043
313.15 K, φ1 = 0.7665	1.4211 ± 0.00043
313.15 K, φ1 = 0.8262	1.42784 ± 0.00044
313.15 K, φ1 = 0.875	1.4333 ± 0.00044
313.15 K, φ1 = 0.915	1.43765 ± 0.00044
313.15 K, φ1 = 0.9327	1.43961 ± 0.00044
313.15 K, φ1 = 0.9729	1.44409 ± 0.00045
313.15 K, φ1 = 1	1.44706 ± 0.00045
323.15 K, φ1 = 0.0942	1.332 ± 0.0004
323.15 K, φ1 = 0.1995	1.34774 ± 0.00041
323.15 K, φ1 = 0.2718	1.35784 ± 0.00041
323.15 K, φ1 = 0.3485	1.3681 ± 0.00041
323.15 K, φ1 = 0.4461	1.38056 ± 0.00042
323.15 K, φ1 = 0.5454	1.39283 ± 0.00042
323.15 K, φ1 = 0.6709	1.40773 ± 0.00043
323.15 K, φ1 = 0.7652	1.41853 ± 0.00043
323.15 K, φ1 = 0.8253	1.42521 ± 0.00044
323.15 K, φ1 = 0.8742	1.43058 ± 0.00044
323.15 K, φ1 = 0.9144	1.43492 ± 0.00044
323.15 K, φ1 = 0.9322	1.43687 ± 0.00044
323.15 K, φ1 = 0.9727	1.44133 ± 0.00045
323.15 K, φ1 = 1	1.44425 ± 0.00045

CCO [ethanol]
[2]
Conditions	refractive index
293.15 K	1.36144 ± 0.00041
303.15 K	1.35702 ± 0.00041
313.15 K	1.3527 ± 0.00041
323.15 K	1.34837 ± 0.00041

CO [methanol] + CCCC[n+]1cccc(C)c1.F[B-](F)(F)F
[1], φ2 = 0
Conditions	refractive index
293.15 K	1.32843 ± 0.0004
303.15 K	1.32433 ± 0.0004
313.15 K	1.32015 ± 0.0004
323.15 K	1.3167 ± 0.0004
